Assays:
[1] = test system: T-47D cells; assay: Cell viability MTT assay, T-47D; type: cell-based, human; conditions: Homo sapiens, T47D, 72 h treatment; for viability at 50 µM: n = 4
Method: (§1) Human breast cancer cell line MCF-7 and T-47D, lung cancer cell line A549, and colon cancer cell line HT-29 were cultured under 5% carbon dioxide at 37 °C in DMEM Glutamax (Gibco, Life Technologies) supplemented with 10% (v/v) FBS. They were split in a ratio of 1:3–1:6 (ideally 2–4 × 10,000 cells/cm^2) when they reached 70–80% confluence using 0.25% Trypsin-EDTA. For cell viability MTT assay, cells were seeded into 96-well clear bottom culture plates (Corning, Lowell, MA, USA) at a density of 5 × 10^3 cells/well and settled at 37 °C for 24 h.
(§2) Seeded cells were treated with various concentrations of compounds for desired time period (24, 48 and 72 h). After the treatments, the media were removed from each well, and replaced with 25 μL of serum-free media and 25 μL of MTT Reagent (cat. no., ab211091; Abcam, Cambridge, MA, USA). The plate was then incubated at 37 °C for 3 h, and 75 μL of MTT Solvent (cat. no., ab211091; Abcam) was added into each well after incubation. The absorbance was evaluated at 590 nm. Cell-wells treated with 0.1% DMSO were used as positive control and no cell-wells were used as background control.

[2] = test system: MCF-7 cells; assay: Cell viability MTT assay, MCF-7; type: cell-based, human; conditions: Homo sapiens, 72 h treatment; for viability at 50 µM: MCF7, 50 µM, n = 4
Method: as §1, §2

[3] = biological target: T1, CaV2.2 (Homo sapiens, UniProt Q00975); assay: HVA N-type calcium channel FLIPR assay in SH-SY5Y cells; type: cell-based; conditions: 10 µM nifedipine present, n = 3, read-out: IC50 CaV2.2 (HVA CaVs)
T1 construct: endogenous in cells; host or cells: SH-SY5Y human neuroblastoma cells
Method: (§3) The human embryonic kidney 293 (HEK 293) cell lines (from Emmanuel Bourinet, Montpellier, France) stably expressing CaV3.2 or CaV3.3 were cultured under 5% carbon dioxide at 37 °C in Dulbecco’s Modified Eagle Medium (DMEM) Glutamax (Gibco, Life Technologies, Carlsbad, CA, USA) supplemented with 10% (v/v) fetal bovine serum (FBS), 100 U/mL penicillin, 100 μg/mL streptomycin (Gibco, Life Technologies, Carlsbad, CA, USA), and 750 μg/mL geneticin (G418) (Gibco, Life Technologies). The Chinese Hamster Ovary (CHO) cell lines (Emmanuel Bourinet, Montpellier, France) expressing CaV3.1 were cultured under 5% carbon dioxide at 37 °C in Alpha Minimum Essential Media (MEM) Glutamax (Gibco, Life Technologies), supplemented with 10% (v/v) fetal bovine serum (FBS) and 300 μg/mL geneticin (G418) (Gibco, Life Technologies). The human neuroblastoma SH-SY5Y cells (Victor Diaz, Goettingen, Germany) were cultured under 5% carbon dioxide at 37 °C in RPMI 1640 antibiotic-free medium (Invitrogen, Carlsbad, CA, USA), supplemented with 15% FBS and 2 mM GlutaMAX™ (Invitrogen). D-PBS (Gibco, Life Technologies) was used to wash the cells, and 0.25% Trypsin-EDTA (Gibco, Life Technologies) was used to detach cells from the flask surface. They were split in a ratio of 1:5 (ideally 1000 cells/cm^2) when they reached 70–80% confluence (every 2–3 days). Transiently transfected CaV3.1 HEK293 T cells were used in FLIPR Assays. HEK 293 T cells were cultured under 5% carbon dioxide at 37 °C in DMEM supplemented with 10% (v/v) FBS. D-PBS was used to wash the cells, and 0.25% Trypsin-EDTA was used to detach cells from the flask surface. The cells were split and seeded at 6 million cells per T175 flask, to reach 70–80% confluence after 24 h. The next day, 12 μg DNA of human CaV3.1 was incubated in 900 μL serum-free DMEM with 36 μL FuGENE HD transfection reagent (Promega Corporation, Madison, WI, USA) (1:3 DNA/Fugene ratio) for 20 min, and then the mixture was added into the cell flask slowly, drop by drop. After the transfection, the cells were cultured under 5% carbon dioxide at 37 °C for 24 h and then moved to a 28 °C incubator.
(§4) SH-SY5Y cells were seeded into 384-well black wall clear bottom plates at a density of 15,000 cells per well, resulting in 90–95% confluence after 24 h. The media were then removed from the wells and replaced with 20 μL of 10% calcium 4 dye (Molecular Devices) in physiological salt solution (PSS) (containing 5.9 mM KCl, 1.4 mM MgCl2, 10 mM HEPES, 1.2 mM NaH2 PO4, 5 mM NaHCO3, 140 mM NaCl, 11.5 mM glucose, and 1.8 mM CaCl2, pH 7.4) with 0.1% BSA. As reported, for N-type calcium channel FLIPR assays the cells were pre-incubated with 10 µM nifedipine added in the dye to ensure full inhibition of L-type calcium responses. For L-type calcium channel FLIPR assays, the cells were pre-incubated with 1 µM CVID added in the dye to ensure full inhibition of N-type calcium responses. Positive control on the first reagent plate contained 15 μL of PSS (0.1% BSA), whereas PSS (0.1% BSA) containing 1 µM CVID and 10 µM nifedipine (final concentration) was used as a negative control. The fluorescence readings were recorded and converted as described previously, and agonist containing 90 mM KCl + 5 mM CaCl2 was used in the second addition.

[4] = biological target: CaV3.3 (Homo sapiens, UniProt Q9P0X4); assay: T-type calcium channel window current FLIPR assay, CaV3.3; type: cell-based; conditions: FLIPR window current; for IC50: n = 3, read-out: IC50 CaV3.3 (LVA CaVs)
Sequence of CaV3.3 (Q9P0X4 whole entry): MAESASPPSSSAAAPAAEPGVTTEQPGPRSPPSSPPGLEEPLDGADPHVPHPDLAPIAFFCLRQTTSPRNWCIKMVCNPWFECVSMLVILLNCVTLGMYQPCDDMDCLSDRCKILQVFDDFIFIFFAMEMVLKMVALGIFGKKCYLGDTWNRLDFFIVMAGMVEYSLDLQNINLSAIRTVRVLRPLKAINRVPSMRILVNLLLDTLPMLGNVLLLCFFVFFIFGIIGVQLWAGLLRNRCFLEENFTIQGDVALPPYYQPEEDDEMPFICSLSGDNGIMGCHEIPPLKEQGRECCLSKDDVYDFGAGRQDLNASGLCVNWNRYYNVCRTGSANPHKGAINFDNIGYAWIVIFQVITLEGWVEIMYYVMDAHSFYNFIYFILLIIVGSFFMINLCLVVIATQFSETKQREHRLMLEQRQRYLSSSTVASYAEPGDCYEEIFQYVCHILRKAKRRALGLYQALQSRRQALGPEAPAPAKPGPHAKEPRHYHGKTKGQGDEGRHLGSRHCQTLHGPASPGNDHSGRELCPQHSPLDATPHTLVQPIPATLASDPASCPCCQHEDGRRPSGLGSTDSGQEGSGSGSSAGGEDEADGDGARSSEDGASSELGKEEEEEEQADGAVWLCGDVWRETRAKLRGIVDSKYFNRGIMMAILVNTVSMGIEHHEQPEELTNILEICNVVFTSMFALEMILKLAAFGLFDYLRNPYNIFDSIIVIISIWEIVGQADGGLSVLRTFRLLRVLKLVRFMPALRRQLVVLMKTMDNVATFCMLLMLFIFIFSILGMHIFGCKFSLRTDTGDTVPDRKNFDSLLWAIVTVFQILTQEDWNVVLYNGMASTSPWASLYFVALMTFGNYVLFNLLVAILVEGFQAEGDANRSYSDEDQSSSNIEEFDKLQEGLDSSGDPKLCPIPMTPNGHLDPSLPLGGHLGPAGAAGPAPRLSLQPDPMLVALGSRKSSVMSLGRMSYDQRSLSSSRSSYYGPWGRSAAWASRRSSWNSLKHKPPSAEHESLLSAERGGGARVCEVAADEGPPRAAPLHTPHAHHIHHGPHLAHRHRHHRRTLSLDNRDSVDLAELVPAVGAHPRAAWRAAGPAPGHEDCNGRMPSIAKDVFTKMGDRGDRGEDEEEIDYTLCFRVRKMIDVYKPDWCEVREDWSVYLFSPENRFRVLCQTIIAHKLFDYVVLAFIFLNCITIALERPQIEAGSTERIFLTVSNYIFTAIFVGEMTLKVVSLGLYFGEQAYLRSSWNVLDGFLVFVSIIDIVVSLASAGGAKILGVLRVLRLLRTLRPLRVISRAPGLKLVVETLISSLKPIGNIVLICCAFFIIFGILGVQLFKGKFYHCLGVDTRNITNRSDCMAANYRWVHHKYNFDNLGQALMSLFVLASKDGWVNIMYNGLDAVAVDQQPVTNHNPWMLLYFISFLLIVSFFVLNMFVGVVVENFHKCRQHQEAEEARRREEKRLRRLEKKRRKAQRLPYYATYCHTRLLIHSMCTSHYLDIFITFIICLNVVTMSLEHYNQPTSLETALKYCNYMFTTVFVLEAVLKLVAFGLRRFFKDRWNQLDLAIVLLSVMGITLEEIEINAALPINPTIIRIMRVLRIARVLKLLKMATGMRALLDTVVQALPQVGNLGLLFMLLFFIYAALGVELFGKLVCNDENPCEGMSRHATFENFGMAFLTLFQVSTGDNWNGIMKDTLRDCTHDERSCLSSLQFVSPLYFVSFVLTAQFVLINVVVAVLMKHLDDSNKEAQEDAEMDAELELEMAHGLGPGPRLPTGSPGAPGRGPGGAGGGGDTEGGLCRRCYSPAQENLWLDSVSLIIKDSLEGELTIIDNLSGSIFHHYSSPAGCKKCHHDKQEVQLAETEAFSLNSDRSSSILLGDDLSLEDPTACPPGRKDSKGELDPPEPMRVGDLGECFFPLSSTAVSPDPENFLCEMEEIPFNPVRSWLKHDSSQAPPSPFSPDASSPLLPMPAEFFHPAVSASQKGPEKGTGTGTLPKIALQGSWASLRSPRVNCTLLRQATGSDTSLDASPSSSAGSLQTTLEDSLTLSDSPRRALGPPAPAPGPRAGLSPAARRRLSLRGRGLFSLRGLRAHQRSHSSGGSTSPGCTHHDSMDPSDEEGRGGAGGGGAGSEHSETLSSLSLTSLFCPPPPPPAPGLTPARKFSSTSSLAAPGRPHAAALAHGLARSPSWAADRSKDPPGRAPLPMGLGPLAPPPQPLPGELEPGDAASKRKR
Method: as §3
(§5) HEK 293 cells stably expressing CaV3.2 or CaV3.3 were seeded into 384-well black wall clear bottom plates (Corning) at a density of 30,000 cells per well. Transiently transfected CaV3.1HEK293 T cells were seeded into 384-well black wall clear bottom plates at a density of 60,000 cells per well. Once the cells reached 90–95% confluence after 24 h, the media were removed from the wells and replaced with 20 μL of 10% calcium 4 dye (Molecular Devices, Sunnyvale, CA, USA) in HBSS-HEPES (containing 5 mM KCl, 10 mM HEPES, 140 mM NaCl, 10 mM glucose, and 0.5 mM CaCl2, pH 7.4) with 0.1% bovine serum albumin (BSA). The cells were incubated for 30 min at 37 °C in the presence of 5% carbon dioxide. Each well on the reagent plates for the first addition contained 15 μL different concentrations of compounds dissolved in HBSS-HEPES containing 0.1% BSA and <0.5% DMSO and was incubated for 20 min after loaded. Positive and negative controls contained 15 μL of HBSS-HEPES (0.1% BSA) alone. The plates were placed in the FLIPR^TETRA (Molecular Devices, Sunnyvale, CA, USA) programmed to measure maximum fluorescence intensity following a second addition of the agonist 5 mM CaCl2. The fluorescence readings were recorded and converted as described previously, and HBSS-HEPES (0.1% BSA) was used in the second addition as a negative control.

[5] = test system: HT-29 cells; assay: Cell viability MTT assay, HT-29; type: cell-based, human; conditions: for viability at 50 µM: HT-29, 50 µM, n = 4; for preferential anti-proliferative activity on HT-29: versus MCF-7, T-47D, A549
Method: as §1, §2

[6] = test system: A549 cells; assay: Cell viability MTT assay, A549; type: cell-based, human; conditions: for viability at 50 µM: A549, 50 µM, n = 4
Method: as §1, §2

[7] = biological target: T2, human CaV3.1 (Homo sapiens, UniProt O43497); assay: T-type calcium channel window current FLIPR assay, CaV3.1; type: cell-based; conditions: n = 3, read-out: IC50 CaV3.1 (LVA CaVs)
T2 construct: expressed in transfected cells; host or cells: HEK 293 T cells, transient transfection (FuGENE HD)
Method: as §3, §5

[8] = test system: CaV1; assay: HVA L-type calcium channel FLIPR assay in SH-SY5Y cells; type: cell-based, human; conditions: 1 µM CVID present, n = 3, read-out: IC50 CaV1 (HVA CaVs)
Method: as §3, §4

[9] = biological target: CaV3.2 (Homo sapiens, UniProt O95180); assay: T-type calcium channel window current FLIPR assay, CaV3.2; type: cell-based; conditions: FLIPR window current, n = 3; read-out: IC50 CaV3.2 (LVA CaVs)
Sequence of CaV3.2 (O95180 whole entry): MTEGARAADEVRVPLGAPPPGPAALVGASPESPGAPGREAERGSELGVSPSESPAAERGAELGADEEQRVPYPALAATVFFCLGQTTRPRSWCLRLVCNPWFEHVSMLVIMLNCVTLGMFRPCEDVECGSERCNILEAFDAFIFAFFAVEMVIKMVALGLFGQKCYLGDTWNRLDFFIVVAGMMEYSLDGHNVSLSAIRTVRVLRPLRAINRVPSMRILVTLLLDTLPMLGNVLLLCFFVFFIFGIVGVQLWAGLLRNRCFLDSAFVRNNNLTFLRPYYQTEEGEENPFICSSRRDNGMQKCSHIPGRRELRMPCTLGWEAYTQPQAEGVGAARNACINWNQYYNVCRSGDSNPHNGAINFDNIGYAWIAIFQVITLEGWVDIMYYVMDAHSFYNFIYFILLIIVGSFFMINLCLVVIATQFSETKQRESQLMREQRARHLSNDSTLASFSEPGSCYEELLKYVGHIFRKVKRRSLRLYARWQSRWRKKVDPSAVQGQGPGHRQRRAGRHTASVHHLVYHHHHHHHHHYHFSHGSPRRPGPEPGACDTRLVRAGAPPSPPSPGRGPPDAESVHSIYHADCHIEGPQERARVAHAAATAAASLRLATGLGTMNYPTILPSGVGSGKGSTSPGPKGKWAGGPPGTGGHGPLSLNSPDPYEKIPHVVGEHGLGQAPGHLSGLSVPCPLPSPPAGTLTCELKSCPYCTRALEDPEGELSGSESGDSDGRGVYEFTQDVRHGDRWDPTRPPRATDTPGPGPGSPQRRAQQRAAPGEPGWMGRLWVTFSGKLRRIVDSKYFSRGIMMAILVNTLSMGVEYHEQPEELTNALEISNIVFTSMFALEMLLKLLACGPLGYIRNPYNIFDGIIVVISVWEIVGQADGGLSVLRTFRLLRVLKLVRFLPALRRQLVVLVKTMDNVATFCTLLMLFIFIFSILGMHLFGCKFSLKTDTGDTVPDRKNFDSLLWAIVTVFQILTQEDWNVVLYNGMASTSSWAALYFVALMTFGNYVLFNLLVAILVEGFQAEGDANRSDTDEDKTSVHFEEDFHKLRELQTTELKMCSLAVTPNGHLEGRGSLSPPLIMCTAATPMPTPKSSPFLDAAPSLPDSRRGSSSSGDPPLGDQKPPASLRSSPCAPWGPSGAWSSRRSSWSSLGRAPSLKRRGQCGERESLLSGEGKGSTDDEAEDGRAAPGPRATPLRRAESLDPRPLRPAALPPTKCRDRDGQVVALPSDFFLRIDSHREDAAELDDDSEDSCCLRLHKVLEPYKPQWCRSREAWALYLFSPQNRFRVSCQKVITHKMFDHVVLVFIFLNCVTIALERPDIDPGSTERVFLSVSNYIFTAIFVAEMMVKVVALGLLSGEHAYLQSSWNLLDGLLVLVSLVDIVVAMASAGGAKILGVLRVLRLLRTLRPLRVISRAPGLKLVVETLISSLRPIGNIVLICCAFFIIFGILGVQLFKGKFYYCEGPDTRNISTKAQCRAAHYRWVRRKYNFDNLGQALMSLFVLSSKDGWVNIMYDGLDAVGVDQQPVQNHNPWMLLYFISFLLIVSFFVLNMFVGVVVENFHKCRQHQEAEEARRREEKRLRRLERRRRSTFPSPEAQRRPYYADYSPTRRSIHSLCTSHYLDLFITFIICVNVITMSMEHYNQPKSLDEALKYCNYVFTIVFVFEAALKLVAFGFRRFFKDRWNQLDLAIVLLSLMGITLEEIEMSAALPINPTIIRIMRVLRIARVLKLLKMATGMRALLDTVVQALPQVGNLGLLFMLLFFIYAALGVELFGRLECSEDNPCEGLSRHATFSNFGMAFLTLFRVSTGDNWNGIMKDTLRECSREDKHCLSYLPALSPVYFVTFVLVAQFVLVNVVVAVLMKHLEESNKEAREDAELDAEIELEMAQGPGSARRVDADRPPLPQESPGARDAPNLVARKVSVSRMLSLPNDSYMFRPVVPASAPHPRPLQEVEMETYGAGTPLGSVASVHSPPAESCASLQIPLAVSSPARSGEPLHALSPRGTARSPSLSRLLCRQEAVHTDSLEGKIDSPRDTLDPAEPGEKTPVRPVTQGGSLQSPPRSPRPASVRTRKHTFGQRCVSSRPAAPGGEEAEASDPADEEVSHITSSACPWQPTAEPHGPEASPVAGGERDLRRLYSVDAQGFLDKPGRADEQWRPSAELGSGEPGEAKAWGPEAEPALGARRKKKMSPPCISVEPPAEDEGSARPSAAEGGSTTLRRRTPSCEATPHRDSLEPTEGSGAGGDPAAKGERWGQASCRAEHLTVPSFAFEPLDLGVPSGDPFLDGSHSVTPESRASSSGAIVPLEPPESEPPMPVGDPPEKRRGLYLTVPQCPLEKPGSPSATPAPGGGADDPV
Method: as §3, §5

[10] = Solubility in assay buffer with 0.1% BSA; type: physicochemical
[11] = test system: voltage-gated calcium channels (VGCC); assay: VGCC FLIPR cell-based assays, all channels (overall observation); design: species or system human
Method: as §5, §4

| Structure (SMILES) | viability at 50 µM [1] [%] | viability at 50 µM [2] [%] | IC50 [3] [µM] | inhibition against CaV3.3 [4] | IC50 [4] [µM] | viability at 50 µM ([5]; Homo sapiens, 72 h treatment) [%] | preferential anti-proliferative activity on HT-29 [5] | effect on A549 cell proliferation ([6]; 50 µM, 72 h) | viability at 50 µM ([6]; Homo sapiens, 72 h treatment) [%] | IC50 [7] [µM] | IC50 [8] [µM] | IC50 [9] [µM] | solubility in buffer [10] | inhibition of all the Ca2+ responses [11] | IC50 ([1]; 72 h, n = 3) [µM] | IC50 ([2]; MCF7, 72 h, n = 3) [µM] | better antiproliferative effect on HT-29 cell viability than on the other three cancer cell lines ([5]; 72 h treatment) [fold] | IC50 ([5]; Homo sapiens, HT-29, 72 h, 72 h treatment, n = 3) [µM] | IC50 ([6]; Homo sapiens, A549, 72 h, 72 h treatment, n = 3) [µM] |
| --- | --- | --- | --- | --- | --- | --- | --- | --- | --- | --- | --- | --- | --- | --- | --- | --- | --- | --- | --- |
| O=C(c1c[nH]c2ccccc12)c1cn(S(=O)(=O)O)c2ccccc12 [III] | 79.7 ± 3.74 | 84.9 ± 5.75 | 60.9 ± 3.37 | moderate inhibition | 17.8 ± 4.64 | 21.6 ± 1.1 | preferential anti-proliferative activity | promoted A549 cell proliferation | 211 ± 4.69 | 58.8 ± 6.85 | 192 ± 30.5 | 106 ± 11.8 |  |  |  |  |  |  |  |
| O=C(c1cn(S(=O)(=O)O)c2ccccc12)c1cn(S(=O)(=O)O)c2ccccc12 [XI, 3,3'-carbonylbis(1H-indole-1-sulfonic acid)] |  |  |  |  |  |  |  |  |  |  |  |  | highly insoluble |  |  |  |  |  |  |
| CCOC(=O)C(=O)c1c[nH]c2ccccc12 [VI] |  |  | 53.8 ± 2.43 |  | > 200 |  |  |  |  | 154 ± 18.1 | > 200 | > 200 |  | poor inhibition |  |  |  |  |  |
| Cc1ccc(S(=O)(=O)n2cc(C(=O)c3cn(S(=O)(=O)c4ccc(C)cc4)c4ccccc34)c3ccccc32)cc1 [X] |  |  | 54.5 ± 1.84 |  | 78.3 ± 4.79 |  |  |  |  | 53.4 ± 0.93 | 47.9 ± 1.37 | 99.9 ± 3.56 |  | poor inhibition |  |  |  |  |  |
| CCOC(=O)C(=O)c1cn(S(=O)(=O)c2ccc(C)cc2)c2ccccc12 [VII] |  |  | 32.1 ± 3.01 |  | 13.8 ± 2.02 |  |  |  |  | 43.5 ± 3.72 | 32.1 ± 0.84 | 17.1 ± 1.87 |  |  |  |  |  |  |  |
| O=C(c1c[nH]c2cc(Br)ccc12)c1cn(S(=O)(=O)O)c2cc(Br)ccc12 [V] | 31.4 ± 0.43 | 29.52 ± 0.19 | 90.2 ± 4.93 |  | 92.6 ± 1.46 | 0.93 ± 0.06 | preferential anti-proliferative activity |  | 14.1 ± 0.15 | 92.1 ± 4.69 | 88.2 ± 7.95 | 67.5 ± 6.05 |  | poor inhibition | 38 | 51 | ≥ 2 | 15 | 27 |

Source: paper PMC9412534, “Diindolylmethane Derivatives: New Selective Blockers for T-Type Calcium Channels” (Membranes, 2022)
